Legend:
Assay in all cases: relative viability (nuclei count vs DMSO), 5 days (fraction); higher = more cells survive
Motesanib + Phenformin = compound: CC1(C)CNc2cc(NC(=O)c3cccnc3NCc3ccncc3)ccc21 [Motesanib] + N=C(N)NC(=N)NCCc1ccccc1 [Phenformin] (partner 250 µM)
Outline: (§1)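 Five library-drug doses in √10 steps were combined with a fixed anchor-drug dose, or a single drug was given alone, by pin tool to lung cancer cell lines in 1536-well plates the day after seeding. Nuclei were stained and counted after 5 days. Relative viability is the nuclei count in treated wells over that in vehicle wells, taken as the median of duplicate plates.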

Motesanib + Alpelisib = compound: CC1(C)CNc2cc(NC(=O)c3cccnc3NCc3ccncc3)ccc21 [Motesanib] + Cc1nc(NC(=O)N2CCC[C@H]2C(N)=O)sc1-c1ccnc(C(C)(C)C(F)(F)F)c1 [Alpelisib] (partner 2 µM)
Outline: as §1

[1] = compound: C[C@@]1(C(=O)Nc2ccc(F)nc2)CCCN1c1nc(Nc2cc(C3CC3)n[nH]2)c2cccn2n1 + O=C(CCCCCCC(=O)Nc1ccccc1)NO [Vorinostat] (partner 1 µM)
Outline: as §1

Motesanib + Trametinib = compound: CC1(C)CNc2cc(NC(=O)c3cccnc3NCc3ccncc3)ccc21 [Motesanib] + CC(=O)Nc1cccc(-n2c(=O)n(C3CC3)c(=O)c3c(Nc4ccc(I)cc4F)n(C)c(=O)c(C)c32)c1 [Trametinib] (partner 0.02 µM)
Outline: as §1

Cell Line NCI-H1793 has a relative viability (Motesanib + Phenformin; first compound 0.01 µM) of 0.295, a relative viability (Motesanib + Phenformin; first compound 0.03162 µM) of 0.313 and a relative viability (Motesanib + Phenformin; first compound 0.1 µM) of 0.307. For the same cell line, the relative viability (Motesanib + Phenformin; first compound 0.3162 µM) was 0.39, the relative viability (Motesanib + Phenformin; first compound 1 µM) was 0.362 and the relative viability (Motesanib + Alpelisib; first compound 0.01 µM) was 0.795. For the same cell line, the relative viability (Motesanib + Alpelisib; first compound 0.03162 µM) was 0.673, the relative viability (Motesanib + Alpelisib; first compound 0.1 µM) was 0.75 and the relative viability (Motesanib + Alpelisib; first compound 0.3162 µM) was 0.761. The relative viability (Motesanib + Alpelisib; first compound 1 µM) was 0.676, the relative viability ([1]; first compound 0.04 µM) was 0.79 and the relative viability ([1]; first compound 0.1265 µM) was 0.613. The relative viability ([1]; first compound 0.4 µM) was 0.507, the relative viability ([1]; first compound 1.265 µM) was 0.202 and the relative viability (Motesanib + Trametinib; first compound 0.01 µM) was 0.375. For the same cell line, the relative viability (Motesanib + Trametinib; first compound 0.03162 µM) was 0.362, the relative viability (Motesanib + Trametinib; first compound 0.1 µM) was 0.513 and the relative viability (Motesanib + Trametinib; first compound 0.3162 µM) was 0.409. The relative viability (Motesanib + Trametinib; first compound 1 µM) was 0.523.

NCI-H1915 gave a relative viability (Motesanib + Phenformin; first compound 0.01 µM) of 0.395, a relative viability (Motesanib + Phenformin; first compound 0.03162 µM) of 0.362 and a relative viability (Motesanib + Phenformin; first compound 0.1 µM) of 0.249. The relative viability (Motesanib + Phenformin; first compound 0.3162 µM) was 0.375, the relative viability (Motesanib + Phenformin; first compound 1 µM) was 0.357 and the relative viability (Motesanib + Alpelisib; first compound 0.01 µM) was 1.02. For the same cell line, the relative viability (Motesanib + Alpelisib; first compound 0.03162 µM) was 1.02, the relative viability (Motesanib + Alpelisib; first compound 0.1 µM) was 1.03 and the relative viability (Motesanib + Alpelisib; first compound 0.3162 µM) was 1.02. For the same cell line, the relative viability (Motesanib + Alpelisib; first compound 1 µM) was 1.06, the relative viability ([1]; first compound 0.04 µM) was 0.54 and the relative viability ([1]; first compound 0.1265 µM) was 0.519. The relative viability ([1]; first compound 0.4 µM) was 0.475, the relative viability ([1]; first compound 1.265 µM) was 0.492 and the relative viability (Motesanib + Trametinib; first compound 0.01 µM) was 0.209. The relative viability (Motesanib + Trametinib; first compound 0.03162 µM) was 0.338, the relative viability (Motesanib + Trametinib; first compound 0.1 µM) was 0.318 and the relative viability (Motesanib + Trametinib; first compound 0.3162 µM) was 0.288. The relative viability (Motesanib + Trametinib; first compound 1 µM) was 0.365.

For NCI-H1944, the relative viability (Motesanib + Phenformin; first compound 0.01 µM) was 0.184, the relative viability (Motesanib + Phenformin; first compound 0.03162 µM) was 0.2 and the relative viability (Motesanib + Phenformin; first compound 0.1 µM) was 0.221. The relative viability (Motesanib + Phenformin; first compound 0.3162 µM) was 0.246, the relative viability (Motesanib + Phenformin; first compound 1 µM) was 0.254 and the relative viability (Motesanib + Alpelisib; first compound 0.01 µM) was 0.785. For the same cell line, the relative viability (Motesanib + Alpelisib; first compound 0.03162 µM) was 0.853, the relative viability (Motesanib + Alpelisib; first compound 0.1 µM) was 0.89 and the relative viability (Motesanib + Alpelisib; first compound 0.3162 µM) was 0.885. For the same cell line, the relative viability (Motesanib + Alpelisib; first compound 1 µM) was 0.855, the relative viability ([1]; first compound 0.04 µM) was 0.548 and the relative viability ([1]; first compound 0.1265 µM) was 0.448. It also gave a relative viability ([1]; first compound 0.4 µM) of 0.482, a relative viability ([1]; first compound 1.265 µM) of 0.545 and a relative viability (Motesanib + Trametinib; first compound 0.01 µM) of 0.438. It also gave a relative viability (Motesanib + Trametinib; first compound 0.03162 µM) of 0.442, a relative viability (Motesanib + Trametinib; first compound 0.1 µM) of 0.408 and a relative viability (Motesanib + Trametinib; first compound 0.3162 µM) of 0.455. The relative viability (Motesanib + Trametinib; first compound 1 µM) was 0.384.

Work on NCI-H1975 yielded a relative viability (Motesanib + Phenformin; first compound 0.01 µM) of 0.407, a relative viability (Motesanib + Phenformin; first compound 0.03162 µM) of 0.391 and a relative viability (Motesanib + Phenformin; first compound 0.1 µM) of 0.393. The relative viability (Motesanib + Phenformin; first compound 0.3162 µM) was 0.409, the relative viability (Motesanib + Phenformin; first compound 1 µM) was 0.441 and the relative viability (Motesanib + Alpelisib; first compound 0.01 µM) was 0.681. For the same cell line, the relative viability (Motesanib + Alpelisib; first compound 0.03162 µM) was 0.588, the relative viability (Motesanib + Alpelisib; first compound 0.1 µM) was 0.615 and the relative viability (Motesanib + Alpelisib; first compound 0.3162 µM) was 0.61. The relative viability (Motesanib + Alpelisib; first compound 1 µM) was 0.675, the relative viability ([1]; first compound 0.04 µM) was 0.639 and the relative viability ([1]; first compound 0.1265 µM) was 0.62. For the same cell line, the relative viability ([1]; first compound 0.4 µM) was 0.576, the relative viability ([1]; first compound 1.265 µM) was 0.316 and the relative viability (Motesanib + Trametinib; first compound 0.01 µM) was 0.335. For the same cell line, the relative viability (Motesanib + Trametinib; first compound 0.03162 µM) was 0.359, the relative viability (Motesanib + Trametinib; first compound 0.1 µM) was 0.316 and the relative viability (Motesanib + Trametinib; first compound 0.3162 µM) was 0.38. For the same cell line, the relative viability (Motesanib + Trametinib; first compound 1 µM) was 0.339.

NCI-H1993 showed a relative viability (Motesanib + Phenformin; first compound 0.01 µM) of 0.489, a relative viability (Motesanib + Phenformin; first compound 0.03162 µM) of 0.501 and a relative viability (Motesanib + Phenformin; first compound 0.1 µM) of 0.516. For the same cell line, the relative viability (Motesanib + Phenformin; first compound 0.3162 µM) was 0.564, the relative viability (Motesanib + Phenformin; first compound 1 µM) was 0.451 and the relative viability (Motesanib + Alpelisib; first compound 0.01 µM) was 0.656. For the same cell line, the relative viability (Motesanib + Alpelisib; first compound 0.03162 µM) was 0.659, the relative viability (Motesanib + Alpelisib; first compound 0.1 µM) was 0.765 and the relative viability (Motesanib + Alpelisib; first compound 0.3162 µM) was 0.697. The relative viability (Motesanib + Alpelisib; first compound 1 µM) was 0.642, the relative viability ([1]; first compound 0.04 µM) was 0.663 and the relative viability ([1]; first compound 0.1265 µM) was 0.413. For the same cell line, the relative viability ([1]; first compound 0.4 µM) was 0.44, the relative viability ([1]; first compound 1.265 µM) was 0.422 and the relative viability (Motesanib + Trametinib; first compound 0.01 µM) was 0.598. The relative viability (Motesanib + Trametinib; first compound 0.03162 µM) was 0.566, the relative viability (Motesanib + Trametinib; first compound 0.1 µM) was 0.49 and the relative viability (Motesanib + Trametinib; first compound 0.3162 µM) was 0.718. For the same cell line, the relative viability (Motesanib + Trametinib; first compound 1 µM) was 0.5.

NCI-H2009 showed a relative viability (Motesanib + Phenformin; first compound 0.01 µM) of 0.491, a relative viability (Motesanib + Phenformin; first compound 0.03162 µM) of 0.36 and a relative viability (Motesanib + Phenformin; first compound 0.1 µM) of 0.544. For the same cell line, the relative viability (Motesanib + Phenformin; first compound 0.3162 µM) was 0.481, the relative viability (Motesanib + Phenformin; first compound 1 µM) was 0.487 and the relative viability (Motesanib + Alpelisib; first compound 0.01 µM) was 1.15. It also gave a relative viability (Motesanib + Alpelisib; first compound 0.03162 µM) of 1.18, a relative viability (Motesanib + Alpelisib; first compound 0.1 µM) of 1.17 and a relative viability (Motesanib + Alpelisib; first compound 0.3162 µM) of 1.19. The relative viability (Motesanib + Alpelisib; first compound 1 µM) was 1.15, the relative viability ([1]; first compound 0.04 µM) was 0.789 and the relative viability ([1]; first compound 0.1265 µM) was 0.768. It also gave a relative viability ([1]; first compound 0.4 µM) of 0.747, a relative viability ([1]; first compound 1.265 µM) of 0.598 and a relative viability (Motesanib + Trametinib; first compound 0.01 µM) of 0.244. The relative viability (Motesanib + Trametinib; first compound 0.03162 µM) was 0.316, the relative viability (Motesanib + Trametinib; first compound 0.1 µM) was 0.273 and the relative viability (Motesanib + Trametinib; first compound 0.3162 µM) was 0.291. For the same cell line, the relative viability (Motesanib + Trametinib; first compound 1 µM) was 0.289.

NCI-H2023 gave a relative viability (Motesanib + Phenformin; first compound 0.01 µM) of 0.387, a relative viability (Motesanib + Phenformin; first compound 0.03162 µM) of 0.297 and a relative viability (Motesanib + Phenformin; first compound 0.1 µM) of 0.443. For the same cell line, the relative viability (Motesanib + Phenformin; first compound 0.3162 µM) was 0.421, the relative viability (Motesanib + Phenformin; first compound 1 µM) was 0.463 and the relative viability (Motesanib + Alpelisib; first compound 0.01 µM) was 0.628. For the same cell line, the relative viability (Motesanib + Alpelisib; first compound 0.03162 µM) was 0.669, the relative viability (Motesanib + Alpelisib; first compound 0.1 µM) was 0.68 and the relative viability (Motesanib + Alpelisib; first compound 0.3162 µM) was 0.619. It also gave a relative viability (Motesanib + Alpelisib; first compound 1 µM) of 0.648, a relative viability ([1]; first compound 0.04 µM) of 0.75 and a relative viability ([1]; first compound 0.1265 µM) of 0.201. For the same cell line, the relative viability ([1]; first compound 0.4 µM) was 0.419, the relative viability ([1]; first compound 1.265 µM) was 0.127 and the relative viability (Motesanib + Trametinib; first compound 0.01 µM) was 0.666. It also gave a relative viability (Motesanib + Trametinib; first compound 0.03162 µM) of 0.339, a relative viability (Motesanib + Trametinib; first compound 0.1 µM) of 0.574 and a relative viability (Motesanib + Trametinib; first compound 0.3162 µM) of 0.589. For the same cell line, the relative viability (Motesanib + Trametinib; first compound 1 µM) was 0.569.

With NCI-H2085 the relative viability (Motesanib + Phenformin; first compound 0.01 µM) was 0.745, the relative viability (Motesanib + Phenformin; first compound 0.03162 µM) was 0.759 and the relative viability (Motesanib + Phenformin; first compound 0.1 µM) was 0.756. The relative viability (Motesanib + Phenformin; first compound 0.3162 µM) was 0.781, the relative viability (Motesanib + Phenformin; first compound 1 µM) was 0.759 and the relative viability (Motesanib + Alpelisib; first compound 0.01 µM) was 0.939. It also gave a relative viability (Motesanib + Alpelisib; first compound 0.03162 µM) of 1.01, a relative viability (Motesanib + Alpelisib; first compound 0.1 µM) of 1.02 and a relative viability (Motesanib + Alpelisib; first compound 0.3162 µM) of 0.943. The relative viability (Motesanib + Alpelisib; first compound 1 µM) was 1.05, the relative viability ([1]; first compound 0.04 µM) was 0.779 and the relative viability ([1]; first compound 0.1265 µM) was 0.728. For the same cell line, the relative viability ([1]; first compound 0.4 µM) was 0.69, the relative viability ([1]; first compound 1.265 µM) was 0.569 and the relative viability (Motesanib + Trametinib; first compound 0.01 µM) was 0.513. For the same cell line, the relative viability (Motesanib + Trametinib; first compound 0.03162 µM) was 0.537, the relative viability (Motesanib + Trametinib; first compound 0.1 µM) was 0.521 and the relative viability (Motesanib + Trametinib; first compound 0.3162 µM) was 0.535. It also gave a relative viability (Motesanib + Trametinib; first compound 1 µM) of 0.526.
